# According to patent US20200276334A1, “New Therapy for Pompe Disease” (Erasmus University Medical Center Rotterdam, priority 2017, published 2020):
# Where two headings read alike, the source gives them in different places.
# Columns and labels:
# [1] = cited from earlier work
# [2] = system: iPSC lines used in this study; assay: CHIR99021 optimisation for differentiation of iPSCs into myogenic progenitor cells; assay type: cell-based, human
# Experimental: (§1) A confluent iPSC culture in a 35 mm dish was incubated for 5 minutes at 37° C. with 2 mg/ml collagenase IV in DMEM/F12, cut into pieces with a 23 gauge needle, detached with a cell scraper and split into a 10 cm dish with a confluency of 40%. After 5 days, differentiation into myogenic progenitor cells (MPCs) was started with myogenic differentiation medium (DMEM/F12, 1% Insulin-Transferrin-Selenium-Ethanolamine, 1% penicillin/streptomycin/L-glutamine) supplemented with 3.5 μM CHIR99021 for 5 days and changed to myogenic differentiation medium supplemented with 20 ng/ml FGF2 (Peprotech. London. UK) for 14 days. The last 16 days, cells were cultured in myogenic differentiation medium only. For FACS purification cells were detached with TrypLE and stained on ice with anti-C-MET-APC (1:50, R&D systems, Minneapolis Minn.) and anti-HNK-1-FITC (1:100, Aviv Systems Biology, San Diego. Calif.) antibodies. Prior to FACS, Hoechst (33258, Life Technologies, Carlsbad, Calif.) was added to stain live cells. The c-MET^+/Hoechst^+/Hnk-1^− fraction was sorted in MPC proliferation medium (DMEM high glucose supplemented with 10% fetal bovine serum, 1% penicillin/streptomycin/L-glutamine and 100 ng/ml FGF2) supplemented with 1× Revitacell supplement (Gibco, Waltham. Mass.). For slightly positive cultures, MPCs were sorted with a maximum sorting time of 20 minutes and pooled into a single well until amount of 20.000 for 96 well, 40.000 for 48 well or 80.000 for 24 well was reached. After 24 hours. MPCs were expanded in MPC proliferation medium or cryopreserved. Further details are described previously (van der Wal et al., 2017).
# The first step of the differentiation procedure from iPSCs into MPCs is the stimulation of the Wnt pathway with CHIR99021. In a previous study on which the current protocol was based. […] In order to define the optimal concentration of CHIR99021 we generated single cells from iPSCs, and incubated these with 10 μM CHIR99021 for 2 days, followed by the differentiation procedure highlighted in FIG. 5. […]
# [3] = system: Control 2 iPSCs; assay: Optimization of CHIR99021 concentration, Control 2 iPSC colonies (confluency, Pax7 staining); assay type: cell-based, human
# Experimental: as §1
# (§2) Differentiated cells were fixed by adding 1 volume of 4% paraformaldehyde (PFA) (Merck, Kenilworth, N.J.) in PBS to the medium. PFA was incubated for 10 minutes at room temperature and afterwards replaced by PBS. Fixed cells were either stored at 4° C. or directly stained. For staining, cells were permeabilized for 5 minutes with 0.1% Triton X-100 (AppliChem, Darmstadt, Germany) in PBS and blocked for 30 minutes at room temperature in blocking solution (PBS-T (0.1% Tween. Sigma Aldrich, Irvine. UK) with 3% BSA (Sigma Aldrich. Irvine, UK)). Primary antibodies (Table 5) were incubated 1 hour at room temperature and diluted into 0.1% BSA in PBS-T. The unbound first antibody was removed by washing three times for 5 minutes with PBS-T. Secondary antibodies (1:500, Alexa-Fluor-594-α-goat, Alexa-Fluor-488-α-mouse, Alexa-Fluor-594-α-rabbit, Alexa-Fluor-488-α-rabbit, Invitrogen, Carlsbad, Calif. or horse anti-mouse biotin, Vector Laboratories, Burlingame, Calif.) were incubated for 30 minutes at room temperature in PBS-T. When a secondary biotinylated antibody was used cells were washed three times for 5 minutes with PBS-T and incubated with Streptavidine 594 (1:500. Invitrogen, Carlsbad. Calif.,). The cells were subsequently washed two times for 5 minutes with PBS and incubated for 15 minutes with Hoechst (1:15000. Thermo Scientific, Waltham, Mass.). Cells were imaged in PBS.
# (§3) The first step of the differentiation procedure from iPSCs into MPCs is the stimulation of the Wnt pathway with CHIR99021. In a previous study on which the current protocol was based. […] In order to define the optimal concentration of CHIR99021 we generated single cells from iPSCs, and incubated these with 10 μM CHIR99021 for 2 days, followed by the differentiation procedure highlighted in FIG. 5. […] Generating single iPSCs in feeder-based culture systems causes massive apoptosis and addition of Rock inhibitor is required (Watanabe et al., 2007). To keep the differentiation protocol applicable for feeder-dependent and feeder-free cultures we decided to further optimize the concentration of CHIR99021 on plated iPSC colonies with a range from 3 to 5 μM CHIR99021, with incubation for 4, 5, 8 or 10 days. […] To avoid toxicity, we used a concentration of 3.5 μM CHIR99021 in our final differentiation protocol.
# [4] = system: pluripotent stem cells; settings: cited from earlier work
# [5] = system: Control 1 iPSCs; assay: Optimization of CHIR99021 concentration, Control 1 iPSC colonies (confluency, Pax7 staining); assay type: cell-based, human
# Experimental: as §1, §2, §3
compound,measurement,setting,value
recombinant human GAA: recombinant human acid α-glucosidase used for enzyme replacement therapy,half life,[1]; in blood,2 to 3 h
same,half life,[1]; in cells,several days
"Cc1cnc(-c2cnc(NCCNc3ccc(C#N)cn3)nc2-c2ccc(Cl)cc2Cl)[nH]1 [CHIR99021, 6-[2-[[4-(2,4-dichlorophenyl)-5-(5-methyl-1H-imidazol-2-yl)pyrimidin-2-yl]amino]ethylamino]pyridine-3-carbonitrile]","Pax7 staining, amount of Pax7-positive areas in the culture","[2]; control 1 and control 2 iPSCs, 4 μM CHIR99021 for 5 days, range tested 3 to 5 μM for 4, 5, 8 or 10 days",highest amount of Pax7-positive areas
same,concentration resulting in higher toxicity levels and more variable response among iPSC lines,[2]; plated iPSC colonies,> 4 µM
same,Pax7 positive cells after 40 days of differentiation,"[2]; single cells from iPSCs, 10 μM CHIR99021 for 2 days",Pax7 positive cells were observed
same,Confluency,"[3]; 3 μM CHIR99021, 4 days",95%
same,Confluency,"[3]; 3 μM CHIR99021, 5 days",100%
same,Confluency,"[3]; 3 μM CHIR99021, 8 days",90%
same,Confluency,"[3]; 3 μM CHIR99021, 10 days",95%
same,Confluency,"[3]; 4 μM CHIR99021, 4 days",95%
same,Pax7+,"[3]; 4 μM CHIR99021, 4 days",+ +
same,Confluency,"[3]; 4 μM CHIR99021, 5 days",95%
same,Pax7+,"[3]; 4 μM CHIR99021, 5 days",+ +
same,Confluency,"[3]; 4 μM CHIR99021, 8 days",95%
same,Pax7+,"[3]; 4 μM CHIR99021, 8 days",+ +
same,Confluency,"[3]; 4 μM CHIR99021, 10 days",85%
same,Confluency,"[3]; 5 μM CHIR99021, 4 days",95%
same,Confluency,"[3]; 5 μM CHIR99021, 5 days",95%
same,Pax7+,"[3]; 5 μM CHIR99021, 5 days",+ +
same,Confluency,"[3]; 5 μM CHIR99021, 8 days",50%
same,Confluency,"[3]; 5 μM CHIR99021, 10 days",30%
same,induction of paraxial mesoderm,"[4]; 10 μM CHIR99021 incubated for 2 days, Shelton et al., 2014",better induction of paraxial mesoderm
same,concentration at which toxicity was described,"[4]; Borchin et al., 2013",higher than 3 μM
same,Confluency,"[5]; 3 μM CHIR99021, 4 days",65%
same,Pax7+,"[5]; 3 μM CHIR99021, 4 days",+ +
same,Confluency,"[5]; 3 μM CHIR99021, 5 days",50%
same,Confluency,"[5]; 3 μM CHIR99021, 8 days",40%
same,Confluency,"[5]; 3 μM CHIR99021, 10 days",40%
same,Confluency,"[5]; 4 μM CHIR99021, 4 days",85%
same,Pax7+,"[5]; 4 μM CHIR99021, 4 days",+ + +
same,Confluency,"[5]; 4 μM CHIR99021, 5 days",100%
same,Pax7+,"[5]; 4 μM CHIR99021, 5 days",+ + +
same,Confluency,"[5]; 4 μM CHIR99021, 8 days",75%
same,Confluency,"[5]; 4 μM CHIR99021, 10 days",50%
same,Pax7+,"[5]; 4 μM CHIR99021, 10 days",+ +
same,Confluency,"[5]; 5 μM CHIR99021, 4 days",60%
same,Pax7+,"[5]; 5 μM CHIR99021, 4 days",+ +
same,Confluency,"[5]; 5 μM CHIR99021, 5 days",70%
same,Pax7+,"[5]; 5 μM CHIR99021, 5 days",+ + +
same,Confluency,"[5]; 5 μM CHIR99021, 8 days",0%
same,Confluency,"[5]; 5 μM CHIR99021, 10 days",0%
